The test system of test [1] is Bacterial Transcription/Translation. In words: bacterial transcription/translation assay (pBestLuc luciferase, E. coli S30 extract). It is filed as biochemical. The method, then: This series of assays is known to those of skill in the art, and other assays may be substituted therefore without deviating from the spirit and scope hereof. The DNA template, pBestLuc™ (Promega), is a plasmid containing a reporter gene for firefly luciferase fused to a strong tac promoter and ribosome binding site. Messenger RNA from 1 μg pBestLuc is transcribed and translated in E. coli S30 bacterial extract in the presence or absence of test compound. Compounds are tested in a black 96 well microtiter plate with an assay volume of 35 μL. […] The transcription/translation reaction is incubated for 35 minutes at 37° C. followed by detection of functional luciferase with the addition of 30 μL LucLite™ (Packard). Light output is quantitated on a Packard TopCount.

For test [2], the system named is S. aureus. In words: MIC assay of Example 20, S. aureus. The test is classed as cell-based. The following applies: Tables 4-7. The method, then:
(§1) The assays are carried out in 150 μL volume in duplicate in 96-well clear flat-bottom bottom plates. The bacterial suspension from an overnight culture growth in appropriate medium is added to a solution of test compound in 4% DMSO in water. Final bacterial inoculum is approximately 10^5-10^6 CFU/well. The percent growth of the bacteria in test wells relative to that observed for a well containing no compound is determined by measuring absorbance at 595 nm (A595) after 24 h. The MIC is determined as a range of single compound where the complete inhibition of growth is observed at the higher concentration and cells are viable at the lower concentrations. Both ampicillin and tetracycline are used as antibiotic-positive controls in each screening assay for S. pyogenes, E. coli, S. aureus, E. faecalis, K. pneumoniae and P. vulgaris; . Ciprofloxacin is used as an antibiotic positive control in each screening assay for P. aeruginosa.

Test [3] deals with E. coli. As to the kind of experiment: MIC assay of Example 20, E. coli. The following applies: Tables 4-7. It is filed as cell-based. How it is done: as §1
The subject of another test is Ag IIa HCV IRES Target. In words: MASS screening against Ag IIa HCV IRES target. The test is classed as binding. The following applies: target conc. […], ligand conc. 50 μM; for Selectivity: by mass spectral analysis. The method, then: A series of 2-aminobenzimidazole dimers were synthesized according to the procedure described in Example 11. A series of 5- and 6-substituted-2-aminobenzimidazoles also were synthesized, and all were evaluated for biological activity. Tables 4-7 report MIC and transcription/translation activity for the dimer compounds By the outlined procedure. Tables 8 and 9 report the MASS screening of 2-aminobenzimidazoles against the AgIIa HCV-IRES target. The reported selectivity was determined by mass spectral analysis of any associations and provides information about the relative binding affinities.

Test [4] relates to E. coli. As to the kind of experiment: in vitro antibacterial activity (MIC) against E. coli. The test is classed as cell-based. The note with it: Escherichia coli; Tables 1 and 2.
Procedure: (§2) Compounds were evaluated for in vitro antibacterial activity (referred to MIC, the minimum concentration inhibiting fungal cell growth) against S. aureus and E. coli. […] The assays are carried out in 150 mL volume in duplicate in 96-well clear flat-bottom plates. […] Final bacterial or yeast inoculum is approximately 10^2-10^3 CFU/well. […] (bacteria) or 40-48 hours (yeast) at 25° C. The MIC is determined as a range of concentration where complete inhibition of growth is observed at the higher concentration and bacterial/yeast cells are viable at the lower concentration. Ampicillin and tetracycline are used as antibiotic positive controls for bacterial MIC assays.
(§3) The assays are carried out in 150 μL volume in duplicate in 96-well clear flat-bottom plates. […] Final bacterial or yeast inoculum is approximately 10^2-10^3 CFU/well. […] (bacteria) or 40-48 hours (yeast) at 25° C. The MIC is determined as a range of concentration where complete inhibition of growth is observed at the higher concentration and bacterial/yeast cells are viable at the lower concentration. Ampicillin and tetracycline are used as antibiotic positive controls for bacterial MIC assays.
Test [5] deals with S. aureus. In words: in vitro antibacterial activity (MIC) against S. aureus. The test is classed as cell-based. The note with it: Staphylococcus aureus; Tables 1 and 2.
Procedure: as §2, §3
Test [6] relates to E. coli 16S A-site. In words: MS-based assay of binding affinity for 16S RNA A-site. The text has this:
It has been established that the 16S A-site is involved in bacterial translation, and the aminoglycosides are known to bind to the region. Thus, the bacterial 16S A-site represents a prime target for discovering antibacterial agents, and much work has focused on the modification of the natural aminoglycosides. […] These are shown below in Scheme 17. [drawing 31]
The synthesis of compound 1 and piperidine-modified benzimidazoles are shown above in Scheme 17.
A series of benzimidazole-modified analogs were prepared as shown above. The procedure required the simple heating of a suitable 1,2-dianiline (8) with isonipecotic acid (9) in the presence of polyphosphoric acid.

Test [7] has as its system E. coli 16S A-site. As to the kind of experiment: MS-based competition experiments to determine the binding location. The note with it: competition of 1 with glucosamine. The text has this: MS-based competition experiments were used to determine the binding location of 1 to the target RNA. Glucosamine is the A-ring of paromomycin that is known to bind to the target RNA and inhibits bacterial translation.

The mark [8] stands for this setting: Tables 4-7, read-out: Transcription/Translation, IC50.

Molecules are shown by their SMILES. Values after ≈ are worked out from the molar mass of the structure shown. Like-named read-outs stand apart in the source and are kept apart here.

As usually defined, the MIC is the least concentration at which growth counts as inhibited. A lower MIC goes with a more susceptible organism. As to `CN(CCCn1c(N)nc2ccccc21)CCCn1c(N)nc2ccccc21`, the IC50 in test [1] (setting [8]) came to 25 µM. For the same compound, the MIC against S. aureus [2] (Staphylococcus aureus) was 75 to 100 µM (≈ 28.3 to 37.7 µg/mL); in the test with E. coli [3] (Escherichia coli) it was 25 to 50 µM (≈ 9.44 to 18.9 µg/mL).

`CN(CCCn1c(N)nc2cc(Br)ccc21)CCCn1c(N)nc2cc(Br)ccc21`: in test [1] (setting [8]), the IC50 was above 100 µM. For the same compound, the MIC against S. aureus [2] (Staphylococcus aureus) and against E. coli [3] (Escherichia coli) was 25 to 50 µM (≈ 13.4 to 26.8 µg/mL) in each case.

For the compound `Cc1ccc2nc(N)n(CCCN(C)CCCn3c(N)nc4ccc(C)cc43)c2c1`, the IC50 in test [1] (setting [8]) fell in the range of 6 to 12 µM. The MIC against S. aureus [2] (Staphylococcus aureus) and in the test on E. coli [3] (Escherichia coli) was above 100 µM throughout.

On to `COC(=O)c1ccc2c(c1)nc(N)n2CCCN(C)CCCn1c(N)nc2cc(C(=O)OC)ccc21`, for which, in test [1] (setting [8]), the IC50 was above 100 µM. In addition, the MIC with S. aureus [2] (Staphylococcus aureus) and against E. coli [3] (Escherichia coli) was above 200 µM throughout.

Take `CN(CCCn1c(N)nc2cc(C(F)(F)F)ccc21)CCCn1c(N)nc2cc(C(F)(F)F)ccc21`: in test [1] (setting [8]), the IC50 was above 100 µM. Besides, the MIC fell in the range of 50 to 100 µM (≈ 25.7 to 51.3 µg/mL) in the test on S. aureus [2] (Staphylococcus aureus) and 25 to 50 µM (≈ 12.8 to 25.7 µg/mL) with E. coli [3] (Escherichia coli).

`CN(CCCn1c(N)nc2cc(C#N)ccc21)CCCn1c(N)nc2cc(C#N)ccc21`: in test [1] (setting [8]), the IC50 was above 200 µM. In addition, the MIC against S. aureus [2] (Staphylococcus aureus) and against E. coli [3] (Escherichia coli) was above 200 µM throughout.

With `CN(C)CCCn1c(N)nc2cc(CN)ccc21` [CH2NH2], in the test on Ag IIa HCV IRES Target, the “% Complex” value was 109%, the “% Dimer” value came out at 80% and the Selectivity was determined as 2.3.

Consider `Cc1ccc2nc(N)n(CCCN(C)C)c2c1` [CH3], for which, in the test on Ag IIa HCV IRES Target, the “% Complex” value turned out to be 136%, the “% Dimer” value is 31% and the Selectivity is given as 6.55.

Consider `CC(C)(C)OC(=O)N1CCC(c2nc3cc(Cl)c(Cl)cc3n2Cc2ccc(CBr)cc2)CC1` [Compound 4g], for which the MIC was above 100 µM in the test with E. coli [4] and 52 µM (≈ 28.8 µg/mL) against S. aureus [5]. For the same compound, in test [1] (Tables 1 and 2, bacterial transcription/translation, read-out: T/T IC50 MIC), the IC50 is above 100 µM.

`CC(=O)N1CCC(c2nc3cc([N+](=O)[O-])ccc3[nH]2)CC1` [Compound 7a]: the “binding affinity for 16S RNA A-site, in words” value (from here on “binding affinity”) in the test with E. coli 16S A-site [6] is “diminished the binding affinity”.

On to `Cc1ccc2[nH]c(C3CCNCC3)nc2c1` [Compound 10b], for which the “binding affinity” value in the test with E. coli 16S A-site [6] is on record as “tolerated”.

With `Clc1ccc2[nH]c(C3CCNCC3)nc2c1` [Compound 10d], in the test on E. coli 16S A-site [6], the “binding affinity” value is on record as “tolerated”.

`c1cnc2nc(C3CCNCC3)[nH]c2c1` [Compound 10j]: the “binding affinity” value with E. coli 16S A-site [6] is reported as “reduced activities”.

In the case of `CN(C)CCCn1c(N)nc2ccccc21` [H], in the test with Ag IIa HCV IRES Target, the “% Complex” value was found to be 125%, the “% Dimer” value is given as 35% and the Selectivity was found to be 4.30.

For `CN(C)CCCOc1ccc2nc(N)n(CCCN(C)C)c2c1` [O(CH2)3N(CH3)2], in the test on Ag IIa HCV IRES Target, the “% Complex” value is 862%, the “% Dimer” value was found to be 72% and the Selectivity is on record as 96.88.

Consider `COc1ccc2nc(N)n(CCCN(C)C)c2c1` [OCH3], for which, in the test on Ag IIa HCV IRES Target, the “% Complex” value turned out to be 286%, the “% Dimer” value turned out to be 39% and the Selectivity worked out at 10.67.

In the case of `CN(CCn1c(N)nc2cc(Cl)c(Cl)cc21)CCn1c(N)nc2cc(Cl)c(Cl)cc21` [X = Cl], in test [1] (setting [8]), the IC50 is above 100 µM. In addition, the MIC with S. aureus [2] and with E. coli [3] was above 100 µM throughout.

Regarding `CN(CCn1c(N)nc2ccccc21)CCn1c(N)nc2ccccc21` [X = H], the IC50 in test [1] (setting [8]) is above 100 µM. In addition, the MIC with S. aureus [2] and against E. coli [3] was above 100 µM each time.

For the compound `CN(CCCn1c(N)nc2cc(Cl)c(Cl)cc21)CCCn1c(N)nc2cc(Cl)c(Cl)cc21` [X = N—Me], the IC50 in test [1] (setting [8]) was 25 µM. In the test with S. aureus [2], the “MIC, S. aureus” value was in the range of 75 to 100 µM. In the test with E. coli [3], the “MIC, E. coli” value was in the range of 25 to 50 µM.

Consider `CN(CCCn1c(N)nc2cc(Cl)c(Cl)cc21)CCCn1c(N)nc2cc(Cl)c(Cl)cc21` [drawing 35], for which the IC50 in test [1] (setting [8]) was above 100 µM. Also, the minimal inhibitory concentration (MIC) against S. aureus [2] (Staphylococcus aureus) and against E. coli [3] (Escherichia coli) was 12 to 25 µM (≈ 6.18 to 12.9 µg/mL) throughout.

In the case of `CN(C)CCCn1c(N)nc2ccccc21` [drawing 42], the IC50 in test [1] (setting [8]) is above 100 µM. The MIC with S. aureus [2] (Staphylococcus aureus) and with E. coli [3] (Escherichia coli) was above 50 µM in each case.

As for `N[C@H]1C(O)O[C@H](CO)[C@@H](O)[C@@H]1O` (some centres unmarked) [glucosamine], in the test on E. coli 16S A-site [7], the “binding site on the target RNA (competition), in words” value is recorded as “compete for the same binding site”.
